Test results as given in EP4748864A1, “POLYMERIZATION INITIATOR OR PHOTOSENSITIZER, POLYMERIZATION INITIATION COMPOSITION, AND METHOD FOR PRODUCING RESIN” (Miyoshi Oil & Fat Co., Ltd., priority 2023, dated 2025).

Legend:
Format in all cases: physicochemical
[1] = UV absorption characteristics of component (A), UV-visible spectrophotometer; details: 100 µM chloroform solution, 10-mm quartz cell; for Maximum absorption wavelength Molar absorption coefficient: at the maximum absorption wavelength
Protocol: A 100 µM chloroform solution of each benzophenone derivative was prepared and placed in a 10-mm quartz cell. The absorption spectrum was measured using a UV-visible spectrophotometer (V-550, manufactured by JASCO Corporation).

[2] = Solubility of component (A) in monomers and solvents, visual observation; design: key to Solubility Butyl acrylate / Solubility Toluene: ⊚: dissolved transparently; ∘: dissolved almost transparently, but turbidity was observed; △: not dissolved; details: for Solubility Butyl acrylate: 0.1 g in butyl acrylate (1.0 g); for Solubility Butyl acrylate / Solubility Toluene: visual; for Solubility Toluene: 0.1 g in toluene (1.0 g); for solubility in butyl acrylate and toluene, result in words: 0.1 g in butyl acrylate (1.0 g) or toluene (1.0 g)
Protocol: The components (A), A-1 to A-4 and A-9 to A-12, (0.1 g) was added to butyl acrylate (1.0 g) or toluene (1.0 g), and the resulting mixture was stirred. The appearance of the mixture was visually observed, and the solubility was evaluated as follows (Table 5).
• ⊚: dissolved transparently • ∘: dissolved almost transparently, but turbidity was observed • △: not dissolved

[3] = Heat resistance of component (A): 5% weight loss temperature by TG/DTA; details: heating rate 10°C/min, 25°C to 550°C
Protocol: The 5% weight loss temperature of each benzophenone derivative was measured as follows. Using a simultaneous differential thermal and thermogravimetric analyzer (TG/DTA6200, manufactured by SII), heating was performed at a heating rate of 10°C/min in a measurement range of 25°C to 550°C, and the temperature at which the weight change (TG) decreased by 5% by weight was read.

Maximum absorption wavelength Wavelength [1] [nm] | Maximum absorption wavelength Molar absorption coefficient [1] [L/mol/cm] | Solubility Butyl acrylate [2] | Solubility Toluene [2] | Molar absorption coefficient at 365 nm [1] [L/mol/cm] | 5% weight loss temperature [3] [°C] | solubility in butyl acrylate and toluene, result in words [2] | Compound
327 | 31500 | Δ | ○ | – | – | – | 4,4'-Ditolylthiobenzophenone [A-2]
326 | 32880 | Δ | Δ | 3900 | 314 | – | S=C(c1ccc(-c2ccccc2)cc1)c1ccc(-c2ccccc2)cc1 [A-1, 4,4'-Diphenylthiobenzophenone]
327 | 31440 | ⊚ | ⊚ | – | – | good solubility | CC(C)c1ccc(Sc2ccc(C(=O)c3ccc(Sc4ccc(C(C)C)cc4)cc3)cc2)cc1 [A-3, 4,4'-Bis(p-isopropylphenylthio)benzophenone]
328 | 31120 | ○ | ⊚ | – | – | good solubility | CC(C)(C)c1ccc(Sc2ccc(C(=O)c3ccc(Sc4ccc(C(C)(C)C)cc4)cc3)cc2)cc1 [A-4, 4,4'-Bis(p-tert-butylphenylthio)benzophenone]
316 | 13200 | – | – | 700 | 235 | – | Cc1ccc(Sc2ccc(C(=O)c3ccccc3)cc2)cc1 [A-5, 4-(p-Tolylthio)benzophenone, reference compound]
323 | 25100 | – | – | 1100 | 239 | – | CSc1ccc(C(=O)c2ccc(SC)cc2)cc1 [A-6, 4,4'-Bis(methylthio)benzophenone, reference compound]
326 | 24800 | – | – | 2000 | 282 | – | CCCCCCCCSc1ccc(C(=O)c2ccc(SCCCCCCCC)cc2)cc1 [A-7, 4,4'-Bis(octylthio)benzophenone, reference compound]
328 | 30730 | ○ | ⊚ | – | – | – | Cc1cccc(Sc2ccc(C(=O)c3ccc(Sc4cccc(C)c4)cc3)cc2)c1 [A-10, 4,4'-Dithio(3-methylphenyl)benzophenone]
329 | 31640 | ○ | ○ | 3830 | – | – | Cc1ccc(Sc2ccc(C(=O)c3ccc(Sc4ccc(C)cc4C)cc3)cc2)c(C)c1 [A-11, 4,4'-Dithio(2,4-dimethylphenyl)benzophenone]
328 | 31590 | ○ | ⊚ | 3250 | – | – | Cc1ccc(C)c(Sc2ccc(C(=O)c3ccc(Sc4cc(C)ccc4C)cc3)cc2)c1 [A-12, 4,4'-Dithio(2,5-dimethylphenyl)benzophenone]

Compound | Maximum absorption wavelength Wavelength [1] [nm] | Maximum absorption wavelength Molar absorption coefficient [1] [L/mol/cm] | Solubility Butyl acrylate [2] | Solubility Toluene [2] | Molar absorption coefficient at 365 nm [1] [L/mol/cm] | 5% weight loss temperature [3] [°C] | solubility in butyl acrylate and toluene, result in words [2]
Cc1cc(C(C)(C)C)ccc1Sc1ccc(C(=O)c2ccc(Sc3ccc(C(C)(C)C)cc3C)cc2)cc1 [A-9, 4,4'-Dithio(4-tert-butyl-2-methylphenyl)benzophenone] | 329 | 32600 | ⊚ | ⊚ | 3870 | – | –
